By EC50 is commonly meant the midpoint of the concentration-response curve.

T1 sequence (P43119 whole entry): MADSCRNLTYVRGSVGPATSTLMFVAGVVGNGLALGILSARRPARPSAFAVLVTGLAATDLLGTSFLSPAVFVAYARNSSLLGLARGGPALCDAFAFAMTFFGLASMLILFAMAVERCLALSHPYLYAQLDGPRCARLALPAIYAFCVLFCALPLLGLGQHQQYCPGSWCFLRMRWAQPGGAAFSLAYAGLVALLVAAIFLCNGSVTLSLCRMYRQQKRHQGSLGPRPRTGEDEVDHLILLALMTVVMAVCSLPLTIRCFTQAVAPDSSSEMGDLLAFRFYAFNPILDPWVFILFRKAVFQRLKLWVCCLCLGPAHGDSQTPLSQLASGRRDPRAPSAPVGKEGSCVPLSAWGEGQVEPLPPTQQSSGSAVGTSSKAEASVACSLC

The first test addresses T1, IP receptor (Homo sapiens, UniProt P43119).
T1 construct: expressed in transfected cells; host or cells: CHO cells stably expressing the IP receptor (CHO-IP)
Nature of the test: cAMP accumulation in CHO cells stably expressing the IP receptor (CHO-IP), PerkinElmer AlphaScreen assay. The settings on record: 1 hour at room temperature, Table 1, read-out: EC50. The format is cell-based. As for the experimental part:
Activity of compounds at the IP receptor (IP receptor) is assessed by measuring cAMP accumulation in CHO cells stably expressing the IP receptor (CHO-IP) using the PerkinElmer AlphaScreen assay. This technology measures the endogenous production of cAMP, in a non-radioactive luminescence proximity homogenous assay. A biological reaction occurs between streptavidin coated donor beads, biotinylated cAMP and anti-cAMP acceptor beads, bringing the donor and acceptor beads close enough together so that upon excitation a fluorescence signal is produced. On production of endogenous cAMP, competition between the biotinylated cAMP and cellular-derived cAMP causes a reduction in the fluorescent signal. The reduction in signal is proportional to the amount of cAMP being produced, thus it is possible to quantify the amount of cAMP being produced on stimulation with agonist.
Test and reference compounds are prepared at 100×[final] in 100% DMSO, and diluted 1:3 using a Biomek Fx (Beckman Coulter). This is followed by an intermediate dilution to give 5×[final] in assay buffer (HBSS containing 5 mM HEPES, 0.1% (w/v) BSA). 5 μL of 5×[final] test compounds, reference compounds and buffer/DMSO control are then transferred to a 384-well white OptiPlate, containing 20 μL CHO—IP cell suspension (15,000 cells/well, prepared from frozen), and plate is incubated at room temperature for 1 hour. A cAMP standard curve is constructed for each experiment (concentration range of 10000 nM to 0.001 nM, in assay buffer) and 25 μL of each concentration added to the last two columns of the assay plate. The incubation is terminated by the addition of lysis buffer (dH2O; 0.3% (v v^−1) Tween-20) containing 20 units mL^−1 streptavidin coated donor beads and biotinylated cAMP (pre-incubated for 30 minutes) and 20 units mL^−1 anti-cAMP acceptor beads, which are added to the lysis buffer just before addition to the assay plate. The assay plate is then incubated at room temperature in the dark, for 60 minutes with gentle shaking, and read on the Envision plate reader (Perkin Elmer).
The raw data of the reference compounds, test compounds and controls are converted into cAMP concentrations, using the cAMP standard curve, in GraphPadPrism (GraphPad Software Inc). EC50 as well as maximal values of the agonist curves are determined using a 4-parameter logistic equation. The % maximum response values of all test compounds are determined using the top of the treprostinil concentration-response curve.
Background: Cyclic AMP is a second messenger, typically raised through Gs and lowered through Gi signalling.
Take `Cc1ccc(-c2nc3c(nc2-c2ccc(C)cc2)N(CCCC(O)C(O)CC(=O)O)CCC3)cc1` (racemic) [Example 15.1, rac-7-(2,3-Dip-tolyl-7,8-dihydropyrido[2,3-b]pyrazin-5(6H)-yl)-3,4-dihydroxyheptanoic acid]: the 50% effective concentration (EC50) worked out at 57 nM. As for `CN1c2nc(-c3ccccc3)c(-c3ccccc3)cc2CCC1CCCCCC(=O)O` (single isomer, unassigned) [Example 2.1, 6-(1-methyl-6,7-diphenyl-1,2,3,4-tetrahydro-1,8-naphthyridin-2-yl)hexanoic acid], the EC50 is 30 nM. As to `CN1c2nc(-c3ccccc3)c(-c3ccccc3)cc2CCC1CCCCCC(=O)O` (single isomer, unassigned) [Example 2.2, 6-(1-methyl-6,7-diphenyl-1,2,3,4-tetrahydro-1,8-naphthyridin-2-yl)hexanoic acid], the EC50 stood at 100 nM. Still for that read-out and setting: in the case of `CC1CCc2cc(-c3ccccc3)c(-c3ccccc3)nc2N1CCCCCCC(=O)O` (single isomer, unassigned) [Example 3.1, 7-(2-methyl-6,7-diphenyl-3,4-dihydro-1,8-naphthyridin-1(2H)-yl)heptanoic acid] it was 36 nM; in that of `CC1CCc2cc(-c3ccccc3)c(-c3ccccc3)nc2N1CCCCCCC(=O)O` (single isomer, unassigned) [Example 3.2, 7-(2-methyl-6,7-diphenyl-3,4-dihydro-1,8-naphthyridin-1(2H)-yl)heptanoic acid], 245 nM; in that of `Cc1ccc(-c2nc3c(nc2-c2ccc(C)cc2)N(CCCCCCC(=O)O)C(C)CC3)cc1` (single isomer, unassigned) [Example 4.14, 7-(6-methyl-2,3-dip-tolyl-7,8-dihydropyrido[2,3-b]pyrazin-5(6H)-yl)heptanoic acid], 0.13 nM. For `Cc1ccc(-c2nc3c(nc2-c2ccc(C)cc2)N(CCCCCCC(=O)O)C(C)CC3)cc1` (single isomer, unassigned) [Example 4.15, 7-(6-methyl-2,3-dip-tolyl-7,8-dihydropyrido[2,3-b]pyrazin-5(6H)-yl)heptanoic acid], the concentration giving a half-maximal response (EC50) worked out at 0.48 nM. Consider `Cc1ccc(-c2nc3c(nc2-c2ccc(C)cc2)N(CCCCCCC(=O)O)CC(O)C3O)cc1` (single isomer, unassigned) [Example 8.2a, 7-(7,8-dihydroxy-2,3-dip-tolyl-7,8-dihydropyrido[2,3-b]pyrazin-5(6H)-yl)heptanoic acid], for which the EC50 was found to be 0.49 nM. Turning to `Cc1ccc(-c2nc3c(nc2-c2ccc(C)cc2)N(CCCCCCC(=O)O)CC(O)C3O)cc1` (single isomer, unassigned) [Example 8.2b, 7-(7,8-dihydroxy-2,3-dip-tolyl-7,8-dihydropyrido[2,3-b]pyrazin-5(6H)-yl)heptanoic acid], the EC50 came to 0.89 nM. Take `Cc1ccc(-c2nc3c(nc2-c2ccc(C)cc2)N(CCCCCCC(=O)O)CCC3O)cc1` (single isomer, unassigned) [Example 9.8, rac-7-(8-Hydroxy-2,3-dip-tolyl-7,8-dihydropyrido[2,3-b]pyrazin-5(6H)-yl)heptanoic acid]: the concentration giving a half-maximal response (EC50) came to 0.296 nM. With `Cc1ccc(-c2nc3c(nc2-c2ccc(C)cc2)N(CCCCCCC(=O)O)CCC3O)cc1` (single isomer, unassigned) [Example 9.8a, 7-(8-Hydroxy-2,3-dip-tolyl-7,8-dihydropyrido[2,3-b]pyrazin-5(6H)-yl)heptanoic acid], the EC50 is 0.4 nM.

For `Cc1ccc(-c2nc3c(nc2-c2ccc(C)cc2)N(CCCCCCC(=O)O)CCC3O)cc1` (single isomer, unassigned) [Example 9.8b, 7-(8-Hydroxy-2,3-dip-tolyl-7,8-dihydropyrido[2,3-b]pyrazin-5(6H)-yl)heptanoic acid], the EC50 stood at 1.8 nM. Same read-out and setting: for `Cc1ccc(-c2nc3c(nc2-c2ccc(C)cc2)N(CCCCCCC(=O)O)CC(O)C3)cc1` (single isomer, unassigned) [Example 14.1, 7-(7-hydroxy-2,3-dip-tolyl-7,8-dihydropyrido[2,3-b]pyrazin-5(6H)-yl)heptanoic acid] the value was 0.0718 nM; for `Cc1ccc(-c2nc3c(nc2-c2ccc(C)cc2)N(CCCCCCC(=O)O)CC(O)C3)cc1` (single isomer, unassigned) [Example 14.2, 7-(7-hydroxy-2,3-dip-tolyl-7,8-dihydropyrido[2,3-b]pyrazin-5(6H)-yl)heptanoic acid], 0.0627 nM. On to `COC1Cc2nc(-c3ccc(C)cc3)c(-c3ccc(C)cc3)nc2N(CCCCCCC(=O)O)C1` (single isomer, unassigned) [Example 17.1a, 7-(7-methoxy-2,3-dip-tolyl-7,8-dihydropyrido[2,3-b]pyrazin-5(6H)-yl)heptanoic acid], for which the EC50 worked out at 3 nM.

For the compound `COC1Cc2nc(-c3ccc(C)cc3)c(-c3ccc(C)cc3)nc2N(CCCCCCC(=O)O)C1` (single isomer, unassigned) [Example 17.1b, 7-(7-methoxy-2,3-dip-tolyl-7,8-dihydropyrido[2,3-b]pyrazin-5(6H)-yl)heptanoic acid], the EC50 turned out to be 4.8 nM.

For `O=C(O)CCCCCCN1CCCc2cc(-c3ccccc3)c(-c3ccccc3)nc21` [Example 1.1, 7-(6,7-Diphenyl-3,4-dihydro-1,8-naphthyridin-1(2H)-yl)heptanoic acid], the EC50 worked out at 5.5 nM. As to `O=C(O)CCCCCCN1CCCc2nc(-c3ccccc3)c(-c3ccccc3)nc21` [Example 4.1, 7-(2,3-diphenyl-7,8-dihydropyrido[3,2-b]pyrazin-5(6H)-yl)heptanoic acid], the EC50 was determined as 1.2 nM.

Regarding `Cc1ccc(-c2nc3c(nc2-c2ccc(C)cc2)N(CCCCCCC(=O)O)CCC3)cc1` [Example 4.3, 7-(2,3-Dip-tolyl-7,8-dihydropyrido[2,3-b]pyrazin-5(6H)-yl)heptanoic acid], the EC50 was found to be 0.11 nM. For `Cc1ccc(-c2nc3c(nc2-c2ccccc2)CCCN3CCCCCCC(=O)O)cc1` [Example 5.2, 7-(2-Phenyl-3-p-tolyl-7,8-dihydropyrido[2,3-b]pyrazin-5(6H)-yl)heptanoic acid], the EC50 came out at 0.08 nM.

As for `Cc1ccc(-c2nc3c(nc2-c2ccc(C)c(F)c2)N(CCCCCCC(=O)O)CCC3)cc1F` [Example 6.1, 7-(2,3-bis(3-Fluoro-4-methylphenyl)-7,8-dihydropyrido[2,3-b]pyrazin-5(6H)-yl)heptanoic acid], the EC50 was 0.32 nM.

With `O=C(O)CCCCCCN1CC[C@@H](O)c2nc(-c3ccccc3)c(-c3ccccc3)nc21` [Example 9.1, (R)-7-(8-Hydroxy-2,3-diphenyl-7,8-dihydropyrido[2,3-b]pyrazin-5(6H)-yl)heptanoic acid], the EC50 was 5.6 nM. In the case of `O=C(O)CCCCCCN1CC[C@H](O)c2nc(-c3ccccc3)c(-c3ccccc3)nc21` [Example 9.2, (S)-7-(8-Hydroxy-2,3-diphenyl-7,8-dihydropyrido[2,3-b]pyrazin-5(6H)-yl)heptanoic acid], the EC50 amounted to 8.6 nM. For the compound `Cc1ccc(-c2nc3c(nc2-c2ccc(C)cc2)N(CCCCCCC(=O)O)C(=O)CC3)cc1` [Example 12.1, 7-(6-oxo-2,3-dip-tolyl-7,8-dihydropyrido[2,3-b]pyrazin-5(6H)-yl)heptanoic acid], the EC50 worked out at 0.0754 nM. For the compound `Cc1ccc(-c2nc3c(nc2-c2ccc(C)cc2)N(CCCCCCC(=O)O)C(=O)C(O)C3)cc1` (stereo not shown) [Example 16.1, 7-(7-Hydroxy-6-oxo-2,3-dip-tolyl-7,8-dihydropyrido[2,3-b]pyrazin-5(6H)-yl)heptanoic acid], the EC50 was found to be 0.74 nM.

The same test, now with this note: read-out: EC50 values in the data measurements described above.
Consider `O=C(O)CCCCN1CCCc2cc(-c3ccccc3)c(-c3ccccc3)nc21` [5-(6,7-diphenyl-3,4-dihydro-1,8-naphthyridin-1(2H)-yl)pentanoic acid], for which the EC50 is > 10000 nM. `CCCc1ccc(-c2nc3c(nc2-c2ccc(CCC)cc2)N(CCCCCC(=O)OCC)CCC3)cc1` [ethyl 6-(2,3-bis(4-propylphenyl)-7,8-dihydropyrido[2,3-b]pyrazin-5(6H)-yl)hexanoate]: the EC50 is > 10000 nM. Take `CCOC(=O)CCCCCCN1CCCc2nc(-c3cccc(C)c3)c(-c3ccc(C)cc3)nc21` [ethyl 7-(2-(m-tolyl)-3-(p-tolyl)-7,8-dihydropyrido[2,3-b]pyrazin-5(6H)-yl)heptanoate]: the EC50 is > 10000 nM.
